The source of these data is US8133294B2, “Buffered amino alcohol solutions of N-(n-butyl)thiophosphoric triamide (NBPT) and urea fertilizers using such solutions as urease inhibitors” (Whitehurst Associates, Inc., priority 2009, dated 2012).

Each structure is given as a SMILES string. “Also recorded” adds a separate entry of the source.

The nature of data set [1]: Sulfide test: NBPT containing buffered mixture added to copper (II) containing ARBORITE Binder 75, colour change. The class given is physicochemical. How it is done: As another example of the instability of this formulation, the buffered NBPT containing mixture was added to ARBORITRE® Binder 75 which is an ethanolamine borate containing copper (II) ions at about 0.75%.
[…]; The NBPT containing buffered mixture was then added to ARBORITE® Binder 75.

The conditions of data set [2]: background description; cited from earlier work.
Data set [3] can be described thus: Stability of NBPT in the buffered mixture on standing (yellowing, hydrogen sulfide odor as signs of decomposition). The class given is physicochemical.
Data set [4] can be described thus: Solubility limit of NBPT in buffered amino alcohol/carboxylic acid mixture. The class given is physicochemical. The conditions noted are these: 12% NBPT in MEA/acetic acid buffered mixture, pH 9.2 (Example 3).

For the molecule `CCCCNP(N)(N)=S` [NBPT, N-(n-butyl)-thiophosphoric triamide], the “Colour change on addition to ARBORITE Binder 75 (sulfides of copper (II))” value in data set [1] (20% NBPT in TEA/acetic acid buffered mixture, pH 7.6 (Example 6)) is “lost its characteristic blue color and appeared green”; in data set [1] (25% NBPT in MIPA/acetic acid buffered mixture, pH 9.0 (Example 13)), “No reaction characteristic of the formation of sulfide salts of copper (II) was observed”; in data set [1] (NBPT in MEA/acetic acid buffered mixture, pH 7.0 (Example 1)), “immediately turned brown”. In data set [2], the “Hydrolytic and thermal stability” value is “undergoes hydrolysis and is thermally unstable”. In addition, the “Decomposition of NBPT in the buffered mixture over time” value in data set [3] (12% NBPT in MEA/acetic acid buffered mixture, pH 9.2 (Example 3)) was “no signs of yellowing were observed”; in data set [3] (MEA/acetic acid buffered mixture, pH 7.0 (Examples 1 and 2)), “turned yellow over time and emitted an odor of hydrogen sulfide; also recorded: caused hydrolysis of the NBPT and released sulfides”; in data set [3] (TEA/acetic acid buffered mixture, pH 7.6 (Example 6)), “displayed a tendency to yellow over time”. Besides, the “Crystallization of the NBPT solution when chilled” value in data set [4] is recorded as “slight crystallization when chilled”.
